The values below come from article PMC9765455 (Science Translational Medicine, 2022).

The term EC90 denotes the concentration at which the effect reaches the 90% level. What is called half-life is the time in which the quantity being followed falls by half. The low end stands for fast loss, the high end for slow loss.

One series concerns SARS-CoV-2 Delta. Kind of series: CPE-based cell viability assay (MTT). The following applies: read-out: EC50 against SARS-CoV-2 Delta.
Another series concerns COVID-19. To be noted: cited from earlier work.
In the next series the test system is host DNA. More on the design: method as in PMID 33961695. To be noted: cell-based assays; cited from earlier work.
Series [1] has as its system P-glycoprotein (P-gp). The following applies: cited from earlier work.
In series [2] the test system is SARS-CoV-2 Omicron BA.2.75. More on the design: species or system Syrian hamsters. To be noted: hamster, in vivo, 200 mg/kg.
The conditions of series [3]: healthy adults, phase 1 trial; cited from earlier work.
Series [4] deals with Calu-3 cells, Vero-TMPRSS2 cells, primary human bronchial epithelial cells. As to the kind of experiment: Compound cytotoxicity assay (CellTiter-Glo / LDH-Glo). Format: cell-based. The following applies: at the examined concentrations, 3 days. For orientation: In ATP-based viability assays light output follows the ATP content of the culture.
The conditions of series [5]: male, Syrian, hamster, in vivo.
For a further series, the system named is SARS-CoV-2 Omicron BA.2. More on the design: species or system Syrian hamsters. The following applies: hamster, in vivo, 200 mg/kg.
A further series has as its system HCoV-OC43. The following applies: cited from earlier work.
A further series deals with SARS-CoV-2 Omicron BA.1. More on the design: species or system Syrian hamsters. To be noted: hamster, in vivo, 200 mg/kg.
The next series has as its system SARS-CoV. To be noted: cited from earlier work.
Another series relates to MERS-CoV. The following applies: cited from earlier work.
Series [6] has as its system SARS-CoV-2 Alpha (lineage B.1.1.7). Further details: species or system Syrian hamsters. The following applies: hamster, in vivo, 200 mg/kg.
Series [7] can be described thus: Pharmacokinetics after single oral administration.
Series [8] deals with P-glycoprotein (P-gp). Kind of series: P-gp substrate assessment. The following applies: inferred from CP-100356 enhancement in Vero-TMPRSS2.
In the next series the test system is SARS-CoV-2 VOCs. Kind of series: CPE-based MTT assay against SARS-CoV-2 VOCs in 293T-hACE2-TMPRSS2 cells (fig. S4). Format: cell-based. To be noted: 293T-hACE2-TMPRSS2, fig. S4. The procedure: Antiviral compounds and antibodies were serially diluted 2-fold increments by culture medium containing 2% FBS and plated on 96-well microplates. The diluted compounds in the plates were mixed with SARS-CoV-2 and cell suspensions. The diluted antibodies were initially incubated with SARS-CoV-2 for 30 minutes and then added to the cell suspension. Cells in the plates were cultured for 2 to 3 days, and then exposed to MTT (3-[4,5-dimethyl-2-thiazolyl]-2,5-diphenyl-2H-tetrazolium bromide) (Nacalai Tesque). Cell viability was determined by measurement of absorbance at 560 nm and 690 nm. EC50 values were defined in GraphPad Prism version 8.4.3 (GraphPad Software) with a variable slope (four parameters).
Cytopathic effect (CPE) in 293T-hACE2-TMPRSS2 cells induced by SARS-CoV-2 infection was measured at 3 dpi by 3-[4,5-dimethyl-2-thiazolyl]-2,5-diphenyl-2H-tetrazolium bromide (MTT) […]
assay. […] Uninfected cells
(1 picture or pasted object on this page, not shown here)
Background: Tetrazolium assays rely on reduction of a dye to a coloured formazan, in cell work by metabolically active cells.

Series [9] relates to SARS-CoV-2 Gamma (lineage P.1). More on the design: species or system Syrian hamsters. To be noted: hamster, in vivo, 200 mg/kg.
The test system of another series is SARS-CoV-2 Omicron BA.5. More on the design: species or system Syrian hamsters. The following applies: hamster, in vivo, 200 mg/kg.
Where [10] appears, read: Severe acute respiratory syndrome coronavirus 2, 293 T-hACE2-TMPRSS2.
Where [11] appears, read: Severe acute respiratory syndrome coronavirus 2, Vero/TMPRSS2, Vero-TMPRSS2.
The mark [12] stands for this setting: Severe acute respiratory syndrome coronavirus 2, Vero/TMPRSS2, Vero-TMPRSS2 with CP-100356.

Like-named read-outs stand apart in the source and are kept apart here.

As to `CC(C)C(=O)OC[C@H]1O[C@@H](n2ccc(NO)nc2=O)[C@H](O)[C@@H]1O` [Molnupiravir, reference compound], the figures for the EC50 in the series on SARS-CoV-2 Delta (setting [10]), in the series with SARS-CoV-2 Delta (setting [11]) and in the series on SARS-CoV-2 Delta (setting [12]) were 3680 ± 1090 nM, 3170 ± 217 nM and 2280 ± 118 nM, respectively. For the same molecule, the “decrease of the risk of hospitalization for COVID-19” value in the series on COVID-19 (clinical trial) is 30%. Further, the mutagenesis entry in the series with host DNA was “mutagenesis not only for viral RNA but also for host DNA”.
Turning to `O=c1nc(NO)ccn1[C@@H]1O[C@H](CO)[C@@H](O)[C@H]1O` [NHC, N-hydroxycytidine], the EC50 in the series with SARS-CoV-2 Delta (setting [10]) was found to be 538 ± 142 nM; in the series on SARS-CoV-2 Delta (setting [11]) it was 360 ± 49.4 nM; with SARS-CoV-2 Delta (setting [12]), 677 ± 8.89 nM.
Take `CC(C)(C)[C@H](NC(=O)C(F)(F)F)C(=O)N1C[C@H]2[C@@H]([C@H]1C(=O)N[C@H](C#N)C[C@@H]1CCNC1=O)C2(C)C` [Nirmatrelvir]: the EC50 with SARS-CoV-2 Delta (setting [10]) was 37 ± 5.3 nM; with SARS-CoV-2 Delta (setting [11]), more than 1000 nM; with SARS-CoV-2 Delta (setting [12]), 132 ± 32 nM. For the same molecule, the “reduction in the risk of hospitalization or death” value with COVID-19 is recorded as 88%. In the series on P-glycoprotein (P-gp) [1], the “substrate of P-gp” value is listed as “major substrates”.
For `CCC(CC)COC(=O)[C@H](C)N[P@](=O)(OC[C@H]1O[C@@](C#N)(c2ccc3c(N)ncnn23)[C@H](O)[C@@H]1O)Oc1ccccc1` [Remdesivir], the values for the EC50 in the series with SARS-CoV-2 Delta (setting [10]), with SARS-CoV-2 Delta (setting [11]) and in the series with SARS-CoV-2 Delta (setting [12]) were less than 3.9 nM, more than 500 nM and 32 ± 4.52 nM, respectively. The “substrate of P-gp” value with P-glycoprotein (P-gp) [1] is “major substrates”.
For the molecule `Cn1cnc(Cn2c(=O)[nH]/c(=N\c3cc4cn(C)nc4cc3Cl)n(Cc3cc(F)c(F)cc3F)c2=O)n1` [S-217622], the “Fig. 3A: Viral RNA” value (in [2]; with SARS-CoV-2 Omicron BA.1) was “n.d.(=1)” throughout. For the same molecule, the “Fig. 3B: Virus titer” value (in series [2]; in the series with SARS-CoV-2 Omicron BA.2; in the series on SARS-CoV-2 Omicron BA.1; in [6]; in series [9]; in the series on SARS-CoV-2 Omicron BA.5) was “n.d.(=100)” each time. In series [3], the bioavailability and tolerability result is “favorable bioavailability and tolerability”. In addition, in series [4], the cytotoxicity result is “No cytotoxicity was observed”. Moreover, the “time at which plasma concentration reached the maximum” value in [5] lay within 0.5 to 2.67 h. Besides, in the series on HCoV-OC43, the 90% effect concentration (EC90) is 74 nM. In addition, the EC50 in the series with SARS-CoV was 210 nM; with SARS-CoV-2 Delta (setting [10]), 26 ± 6.65 nM; in the series on SARS-CoV-2 Delta (setting [11]), 407 ± 21.3 nM; with SARS-CoV-2 Delta (setting [12]), 69 ± 11.2 nM; in the series on MERS-CoV, 1400 nM. The “Cmax and AUC dose proportionality” value in [7] (10 to 100 mg/kg) is given as “increased more than the dose ratio”. The bioavailability entry in [7] (hamsters, plasma) was “excellent bioavailability”. Moreover, the half-life in series [7] (male, Syrian, hamster, plasma, po, 100 mg/kg) was in the range of 206 to 268 min. Besides, the “substrate of P-gp” value in the series on P-glycoprotein (P-gp) [8] is “substrate of P-gp”. In the series with SARS-CoV-2 VOCs, the “antiviral activity against VOCs” value is reported as “exhibited antiviral activity against all VOCs”.
